Test results taken from article PMC6494935, “Glesatinib, a c-MET/SMO Dual Inhibitor, Antagonizes P-glycoprotein Mediated Multidrug Resistance in Cancer Cells” (Frontiers in Oncology, 2019).

Columns and labels:
[1] = molecular target: T1, P-glycoprotein (P-gp, ABCB1) (Homo sapiens, UniProt P08183); assay: vanadate-sensitive ATPase stimulation in membrane vesicles; also inhibits [3H]-paclitaxel efflux in KB-C2 cells; type: biochemical; set-up: ABCB1 in membrane vesicles of High Five insect cells
[2] = molecular target: T1, P-glycoprotein (P-gp, ABCB1)

T1 sequence (P08183 whole entry): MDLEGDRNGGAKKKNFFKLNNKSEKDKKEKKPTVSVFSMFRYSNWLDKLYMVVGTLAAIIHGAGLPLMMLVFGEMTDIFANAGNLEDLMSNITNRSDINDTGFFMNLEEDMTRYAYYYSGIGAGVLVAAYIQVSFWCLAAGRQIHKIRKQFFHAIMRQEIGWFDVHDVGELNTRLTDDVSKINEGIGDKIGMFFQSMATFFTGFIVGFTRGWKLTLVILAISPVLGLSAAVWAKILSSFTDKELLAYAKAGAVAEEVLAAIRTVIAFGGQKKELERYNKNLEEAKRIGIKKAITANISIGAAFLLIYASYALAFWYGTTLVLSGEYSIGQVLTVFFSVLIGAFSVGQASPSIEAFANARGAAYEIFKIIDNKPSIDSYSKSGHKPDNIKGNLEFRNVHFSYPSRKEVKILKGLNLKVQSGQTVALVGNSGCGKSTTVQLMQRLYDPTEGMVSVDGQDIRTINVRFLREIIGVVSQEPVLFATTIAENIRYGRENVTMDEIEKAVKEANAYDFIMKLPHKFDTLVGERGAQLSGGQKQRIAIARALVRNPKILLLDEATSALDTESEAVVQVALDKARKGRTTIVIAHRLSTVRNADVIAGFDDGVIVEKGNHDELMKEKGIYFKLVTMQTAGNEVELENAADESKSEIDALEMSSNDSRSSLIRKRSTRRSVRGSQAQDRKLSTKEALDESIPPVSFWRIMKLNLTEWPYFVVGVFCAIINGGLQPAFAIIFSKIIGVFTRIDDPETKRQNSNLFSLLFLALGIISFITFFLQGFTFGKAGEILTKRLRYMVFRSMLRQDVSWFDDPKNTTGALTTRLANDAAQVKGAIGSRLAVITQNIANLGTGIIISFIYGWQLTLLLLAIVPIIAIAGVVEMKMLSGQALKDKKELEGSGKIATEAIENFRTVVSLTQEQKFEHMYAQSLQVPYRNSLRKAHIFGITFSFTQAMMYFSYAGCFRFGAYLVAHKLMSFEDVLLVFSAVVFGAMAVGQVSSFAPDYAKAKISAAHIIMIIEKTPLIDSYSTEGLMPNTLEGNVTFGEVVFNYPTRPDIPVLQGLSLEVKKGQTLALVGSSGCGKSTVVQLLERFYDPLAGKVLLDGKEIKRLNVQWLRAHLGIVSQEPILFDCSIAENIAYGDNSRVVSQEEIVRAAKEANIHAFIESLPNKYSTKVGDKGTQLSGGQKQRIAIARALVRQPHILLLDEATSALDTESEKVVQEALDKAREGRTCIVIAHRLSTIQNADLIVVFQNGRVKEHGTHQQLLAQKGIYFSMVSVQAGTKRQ

EC50 [1] [µM]	Structure (SMILES)	[3H]-paclitaxel accumulation and efflux in KB-C2 vs parental KB-3-1 cells [2]
3.2	COCCNCc1ccc(-c2cc3nccc(Oc4ccc(NC(=S)NC(=O)Cc5ccc(F)cc5)cc4F)c3s2)nc1 [glesatinib]	–
–	CC(=O)O[C@H]1C(=O)[C@@]2(C)[C@H]([C@H](OC(=O)c3ccccc3)[C@]3(O)C[C@H](OC(=O)[C@H](O)[C@@H](NC(=O)c4ccccc4)c4ccccc4)C(C)=C1C3(C)C)[C@]1(OC(C)=O)CO[C@@H]1C[C@@H]2O [paclitaxel]	While in P-gp overexpressing KB-C-2 cells, [^3H]-paclitaxel accumulation decreased significantly as shown in Figures 4A,C.
